From EP1944022A1, “PHARMACEUTICAL COMPOSITIONS COMBINING […] ANTICONVULSANT AGENTS FOR THE TREATMENT OF CHRONIC AND ACUTE PAIN” (ESPINOZA ABDALA, Leopoldo de Jesús, priority 2005, dated 2007)

Test system: nociceptive pain
Assay: uric acid-induced knee joint inflammation and pain in rats, recovery of Functionality Ratio (AUC over 4 hours)
Format: in vivo, female Wistar rats
Details: rat
Experimental: An experimental preclinical study was performed that compares the analgesic effect of tramadol and gabapentin administered individually and in combination, using female Wistar rats weighting from 160 to 180 g, which were intraarticularly injected 0.05 ml uric acid suspended in mineral oil into knee joint of left hindleg under anesthesia in order to cause inflammation and pain. An electrode was connected at the plantar region of hindlegs. The rats were placed in a roller of 30 cm of diameter rotating at 4 rpm during two-minute periods. The time of contact between each electrode of the rats' hindlegs and the roller was registered. The data are expressed as Functionality Ratio (FR). […] At the same time the medicaments, alone or in combination, were administered, and the Functionality Ratio every 30 minutes for 4 hours was determined. […]
Doses used for the combination were 3.16, 5.62, 10.0 or 17.78, 31.62, 56.23, 100.0 mg/kg of tramadol and those used for gabapentin were 31.6, 56.2, 100.0, 177.8, 316.2 mg/kg. Thus, the possible synergistic interaction (a total of 24 combinations) was analyzed.
The synergism between gabapentin and tramadol was calculated with the synergistic interaction surface analysis and an isobolographic method (Tallarida et al., 1989). The area under the curve (AUC) was calculated for each of the combinations and for each of the components.

COc1cccc(C2(O)CCCCC2CN(C)C)c1 (mixture of isomers) [tramadol, (±) cis-2-[(dimethylamino)methyl]-1-(3-metoxyphenyl) cyclohexanol]
total analgesic effect, area under the curve (AUC) (in vivo): 207.7 ± 24.7 area units

NCC1(CC(=O)O)CCCCC1 [Gabapentin]
total analgesic effect, area under the curve (AUC) (gabapentin alone 316.2 mg/kg, 4-hours observation period): 121.5 ± 30.3 area units
